Assay results reported in patent US20250275959A1, “COMPOUNDS AND METHODS OF THEIR USE” (LEXICON PHARMACEUTICALS, INC., priority 2024, published 2025).

Key:
hACSL5 [1] = molecular target: T1, hACSL5 (Homo sapiens (Human), UniProt Q9ULC5); assay: Human ACSL5 coupled enzyme Amplex Red assay; assay type: biochemical; settings: read-out: hACSL5 IC50
In short: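 Amplex Red coupled readout: 1 mM ATP, 25 μM oleate and 30 μM CoA were added to compound-preincubated enzyme (20 nM, residues 33-683, insect-cell expressed, His-tagged) with coupling peroxidase and acyl-CoA oxidase at pH 7.6. Signal was read at 535/590 nm after 10 minutes at 25° C., and Hill fits yielded half-maximal and maximal inhibition.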
Target sequence in this assay (Q9ULC5 33-683): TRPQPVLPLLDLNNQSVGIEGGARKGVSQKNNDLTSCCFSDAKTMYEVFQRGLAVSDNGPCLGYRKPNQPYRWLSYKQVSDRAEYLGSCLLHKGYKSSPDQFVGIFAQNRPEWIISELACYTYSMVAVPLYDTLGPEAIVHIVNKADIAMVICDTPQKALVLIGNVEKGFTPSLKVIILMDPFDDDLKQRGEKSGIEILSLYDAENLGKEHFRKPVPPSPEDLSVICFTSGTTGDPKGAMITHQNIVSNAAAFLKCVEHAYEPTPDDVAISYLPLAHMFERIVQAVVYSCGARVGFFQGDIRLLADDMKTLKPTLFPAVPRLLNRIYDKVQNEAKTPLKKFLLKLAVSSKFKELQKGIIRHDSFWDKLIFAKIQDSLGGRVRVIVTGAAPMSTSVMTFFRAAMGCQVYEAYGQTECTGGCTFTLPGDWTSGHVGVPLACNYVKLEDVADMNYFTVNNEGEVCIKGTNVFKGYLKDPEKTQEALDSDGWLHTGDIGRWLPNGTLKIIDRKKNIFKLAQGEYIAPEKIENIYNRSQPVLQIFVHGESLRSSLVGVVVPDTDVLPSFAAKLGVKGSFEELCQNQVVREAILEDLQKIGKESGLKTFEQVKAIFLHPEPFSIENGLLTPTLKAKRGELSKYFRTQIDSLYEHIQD

hACSL5 [2] = molecular target: T1, hACSL5; assay: Cell-based assay (CBA) with B12FA in hACSL5-transfected Expi293F / FlpIn TRex293 cells; settings: hACSL5-expressing cells
Excerpt: To assess the cell penetration and cellular activity of the compounds, a cell-based assay (CBA) was used to detect compound potency in living cells. The assay utilized the fluorescent fatty acid analogue B12FA, a boron-dipyrromethene (BODIPY™) labelled C12 fatty acid that can be incorporated into glycerophosphocholine in the cytoplasmic oil droplets of live cells. A concentration-dependent, red-shifted fluorescence can be induced by the formation of BODIPY™ excimers in the oil droplets.
Expi293F cells transfected with full length hACSL5 plasmid were selected using 1 mg/mL G418 culture medium and clones were selected by in vitro whole cell lysate (WCL) assay. The cell passage number used in the Expi293 CBA assay could not be used beyond 10 passages due to a decrease in hACSL5 expression. Therefore, a CBA using FlpIn TRex293 cells for inducible expression of hACSL5 was also established.
FlpIn TRex293 cells transfected with hACSL5 plasmid were selected in culture medium containing 15 µg/ml Blasticidin and 150 µg/ml Hygromycin. For cell-based assays, stable transfected hACSL5 cells were seeded onto a 96-well plate at 30-50k/well and incubated overnight. For the inducible system, […] tetracycline (or doxycycline) was added to culture medium of FlpIn TRex293 hACSL5 cells on the day before the assay to induce expression of hACSL5. The next day, growth media was replaced with culture medium without FBS and glucose (DMEM glucose (-), ThermoFisher) and cells were incubated for an hour before treating cells with serial diluted compounds containing 20 µM B12FA (ThermoFisher) for another 3 hours in the above medium. Cells were then fixed in 4% formaldehyde for 10 minutes and washed twice with PBS. The plate was read using the Cytation 5 imaging system with an excitation wavelength of 485 nm and observed emissions at 630 nm and 520 nm. The percentage of inhibition was calculated as: […]
wherein A is the ratio of emission intensities at 630 nm/520 nm in the absence of inhibitor (maximum ratio); B is the ratio of the intensities at those wavelengths in the presence of […] of the test compound or non-induced cells (minimum ratio); and X is the ratio of the intensities at a given compound concentration.
Concentration-response titration points for each compound tested were filled to the Hill equation yielding concentrations of half maximal inhibition […] and maximal inhibition values.
Target sequence in this assay (Q9ULC5 whole entry, the tested form may be a part): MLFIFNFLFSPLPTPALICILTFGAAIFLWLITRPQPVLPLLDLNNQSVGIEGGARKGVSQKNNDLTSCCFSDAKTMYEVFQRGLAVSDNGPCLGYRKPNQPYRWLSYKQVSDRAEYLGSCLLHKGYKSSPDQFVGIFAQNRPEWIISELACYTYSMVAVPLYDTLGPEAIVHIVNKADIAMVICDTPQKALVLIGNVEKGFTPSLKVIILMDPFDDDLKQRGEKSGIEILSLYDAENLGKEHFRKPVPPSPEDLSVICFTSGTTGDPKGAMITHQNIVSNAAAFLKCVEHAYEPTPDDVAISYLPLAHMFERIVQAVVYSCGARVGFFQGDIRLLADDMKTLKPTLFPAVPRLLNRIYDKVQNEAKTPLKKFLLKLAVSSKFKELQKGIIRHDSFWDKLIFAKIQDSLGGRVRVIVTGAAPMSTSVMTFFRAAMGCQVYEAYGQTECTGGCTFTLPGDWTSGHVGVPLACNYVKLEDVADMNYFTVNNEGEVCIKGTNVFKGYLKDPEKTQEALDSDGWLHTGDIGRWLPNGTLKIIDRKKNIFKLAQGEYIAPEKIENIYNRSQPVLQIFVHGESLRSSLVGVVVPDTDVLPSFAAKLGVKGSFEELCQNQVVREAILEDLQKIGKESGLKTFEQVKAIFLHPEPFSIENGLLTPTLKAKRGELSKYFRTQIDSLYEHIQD

Compound | IC50 (hACSL5 [1]) | IC50 (hACSL5 [2])
CC[C@@H](Oc1ccc(C(=O)NS(=O)(=O)N2CCN(CC3CC3)CC2)c(F)c1F)c1ccc(Oc2ccccn2)cn1 [(R)-N-((4-(cyclopropylmethyl)piperazin-1-yl)sulfonyl)-2,3-difluoro-4-(1-(5-(pyridin-2-yloxy)pyridin-2-yl)propoxy)benzamide] | < 100 nM | < 100 nM
CC[C@@H](Oc1ccc(C(=O)NS(=O)(=O)N2CCC(OC3CCN(C)CC3)CC2)c(F)c1F)c1ccc(OC2CC(OC)C2)cn1 (stereo partly drawn) [2,3-difluoro-4-((R)-1-(5-((1R,3R)-3-methoxycyclobutoxy)pyridin-2-yl)propoxy)-N-((4-((1-methylpiperidin-4-yl)oxy)piperidin-1-yl)sulfonyl)benzamide] | < 100 nM | 100 to 500 nM
CC[C@@H](Oc1ccc(C(=O)NS(=O)(=O)N2CC3(CC(OC4CCN(C)CC4)C3)C2)c(F)c1F)c1ccc(OCC2CC2)cn1 [(R)-4-(1-(5-(cyclopropylmethoxy)pyridin-2-yl)propoxy)-2,3-difluoro-N-((6-((1-methylpiperidin-4-yl)oxy)-2-azaspiro[3.3]heptan-2-yl)sulfonyl)benzamide] | 100 to 500 nM | > 500 nM
CC[C@@H](Oc1ccc(C(=O)NS(=O)(=O)c2ccc(OC3CN(C)C3)cc2)c(F)c1F)c1ccc(OCC2CC2)cn1 [(R)-4-(1-(5-(cyclopropylmethoxy)pyridin-2-yl)propoxy)-2,3-difluoro-N-((4-((1-methylazetidin-3-yl)oxy)phenyl)sulfonyl)benzamide] | < 100 nM | 100 to 500 nM
CC[C@@H](Oc1ccc(C(=O)NS(=O)(=O)N2CCN(C)CC2(C)C)c(F)c1F)c1ccc(OCC2CC2)cn1 [(R)-4-(1-(5-(cyclopropylmethoxy)pyridin-2-yl)propoxy)-2,3-difluoro-N-((2,2,4-trimethylpiperazin-1-yl)sulfonyl)benzamide] | < 100 nM | < 100 nM
CC[C@@H](Oc1ccc(C(=O)NS(=O)(=O)c2ccc(OC3CCN(C)CC3)nn2)c(F)c1F)c1ccc(OCC2CC2)cn1 [(R)-4-(1-(5-(cyclopropylmethoxy)pyridin-2-yl)propoxy)-2,3-difluoro-N-((6-((1-methylpiperidin-4-yl)oxy)pyridazin-3-yl)sulfonyl)benzamide] | < 100 nM | > 500 nM
CC[C@@H](Oc1ccc(C(=O)NS(=O)(=O)N2CCN(C)CC2)c(F)c1F)c1ccc(OC2CC(OC(F)F)C2)cn1 (stereo partly drawn) [4-((R)-1-(5-((1R,3R)-3-(difluoromethoxy)cyclobutoxy)pyridin-2-yl)propoxy)-2,3-difluoro-N-((4-methylpiperazin-1-yl)sulfonyl)benzamide] | 100 to 500 nM | 100 to 500 nM
CC[C@@H](Oc1ccc(C(=O)NS(=O)(=O)N2CCC(OCCN(C)C)CC2)c(F)c1F)c1ccc(OCC2CC2)cn1 [(R)-4-(1-(5-(cyclopropylmethoxy)pyridin-2-yl)propoxy)-N-((4-(2-(dimethylamino)ethoxy)piperidin-1-yl)sulfonyl)-2,3-difluorobenzamide] | < 100 nM | 100 to 500 nM
CC[C@@H](Oc1ccc(C(=O)NS(=O)(=O)N2CCN(C)CC2)cc1C(F)(F)F)c1ccc(OC2CC(OC)C2)cn1 (stereo partly drawn) [4-((R)-1-(5-((1R,3R)-3-methoxycyclobutoxy)pyridin-2-yl)propoxy)-N-((4-methylpiperazin-1-yl)sulfonyl)-3-(trifluoromethyl)benzamide] | 100 to 500 nM | 100 to 500 nM
CC[C@@H](Oc1ccc(C(=O)NS(=O)(=O)N2C[C@H]3C[C@@H]2CN3C)c(F)c1F)c1ccc(OCC2CC2)cn1 [4-((R)-1-(5-(cyclopropylmethoxy)pyridin-2-yl)propoxy)-2,3-difluoro-N-(((1R,4R)-5-methyl-2,5-diazabicyclo[2.2.1]heptan-2-yl)sulfonyl)benzamide] | 100 to 500 nM | 100 to 500 nM
CC[C@@H](Oc1ccc(C(=O)NS(=O)(=O)N2CCN(C3CC3)CC2)c(F)c1F)c1ccc(Oc2ccccn2)cn1 [(R)-N-((4-cyclopropylpiperazin-1-yl)sulfonyl)-2,3-difluoro-4-(1-(5-(pyridin-2-yloxy)pyridin-2-yl)propoxy)benzamide] | < 100 nM | < 100 nM
CC[C@@H](Oc1ccc(C(=O)NS(=O)(=O)c2ccc(O[C@@H]3C[C@H]4C[C@@H]3CN4C)cc2)c(F)c1F)c1ccc(OCC2CC2)cn1 [4-((R)-1-(5-(cyclopropylmethoxy)pyridin-2-yl)propoxy)-2,3-difluoro-N-((4-(((1R,4R,5R)-2-methyl-2-azabicyclo[2.2.1]heptan-5-yl)oxy)phenyl)sulfonyl)benzamide] | < 100 nM | > 500 nM
CC[C@@H](Oc1ccc(C(=O)NS(=O)(=O)N2CCC(OC3CCN(C)CC3)CC2)cc1C(F)(F)F)c1ccc(Oc2ccccn2)cn1 [(R)-N-((4-((1-methylpiperidin-4-yl)oxy)piperidin-1-yl)sulfonyl)-4-(1-(5-(pyridin-2-yloxy)pyridin-2-yl)propoxy)-3-(trifluoromethyl)benzamide] | < 100 nM | < 100 nM
CC[C@@H](Oc1ccc(C(=O)NS(=O)(=O)N2CCC(OC3CCN(C)CC3)CC2)cc1C(F)(F)F)c1ccc(OC2CC(OC)C2)cn1 (stereo partly drawn) [4-((R)-1-(5-((1R,3R)-3-methoxycyclobutoxy)pyridin-2-yl)propoxy)-N-((4-((1-methylpiperidin-4-yl)oxy)piperidin-1-yl)sulfonyl)-3-(trifluoromethyl)benzamide] | < 100 nM | 100 to 500 nM
CC[C@@H](Oc1ccc(C(=O)NS(=O)(=O)N2C[C@@H]3C[C@H]2CN3C)c(F)c1F)c1ccc(OCC2CC2)cn1 [4-((R)-1-(5-(cyclopropylmethoxy)pyridin-2-yl)propoxy)-2,3-difluoro-N-(((1S,4S)-5-methyl-2,5-diazabicyclo[2.2.1]heptan-2-yl)sulfonyl)benzamide] | 100 to 500 nM | 100 to 500 nM
CC[C@@H](Oc1ccc(C(=O)NS(=O)(=O)c2ccc(OCCN3CCCC3)nn2)c(F)c1F)c1ccc(OCC2CC2)cn1 [(R)-4-(1-(5-(cyclopropylmethoxy)pyridin-2-yl)propoxy)-2,3-difluoro-N-((6-(2-(pyrrolidin-1-yl)ethoxy)pyridazin-3-yl)sulfonyl)benzamide] | < 100 nM | > 500 nM
CC[C@@H](Oc1ccc(C(=O)NS(=O)(=O)c2ccc(OCCN3CCCC3)cc2)c(F)c1F)c1ccc(OCC2CC2)cn1 [(R)-4-(1-(5-(cyclopropylmethoxy)pyridin-2-yl)propoxy)-2,3-difluoro-N-((4-(2-(pyrrolidin-1-yl)ethoxy)phenyl)sulfonyl)benzamide] | < 100 nM | 100 to 500 nM
CC[C@@H](Oc1ccc(C(=O)NS(=O)(=O)N2CC3CC2CC3OCCN2CCCC2)c(F)c1F)c1ccc(OCC2CC2)cn1 (stereo partly drawn) [4-((R)-1-(5-(cyclopropylmethoxy)pyridin-2-yl)propoxy)-2,3-difluoro-N-((5-(2-(pyrrolidin-1-yl)ethoxy)-2-azabicyclo[2.2.1]heptan-2-yl)sulfonyl)benzamide] | < 100 nM | 100 to 500 nM
CC[C@@H](Oc1ccc(C(=O)NS(=O)(=O)c2ccc(OCCN3CCN(C)CC3)cc2)c(F)c1F)c1ccc(OCC2CC2)cn1 [(R)-4-(1-(5-(cyclopropylmethoxy)pyridin-2-yl)propoxy)-2,3-difluoro-N-((4-(2-(4-methylpiperazin-1-yl)ethoxy)phenyl)sulfonyl)benzamide] | < 100 nM | 100 to 500 nM
